Patent EP3298022B1, “NOVEL ANNELATED PHENOXYACETAMIDES” (Boehringer Ingelheim International GmbH, priority 2015, dated 2017)

Key:
in vitro = in vitro ADME; conditions: human, pH 7.4, 37°C, 10 µM compound; for Papp A→B: apical-to-basal; for Papp B→A: basal-to-apical
Experimental: Permeability measurements across polarized, confluent CALU-3 cell monolayers grown on permeable filter supports are used to provide information on the potential of a compound to pass the lung epithelium. Apparent permeability coefficients (Papp) of the compounds across the CALU-3 cell monolayers are measured (pH 7.4, 37°C) in apical-to-basal (AB) and basal-to-apical (BA) transport direction.
CALU-3 cells (1-2 x 10^5 cells/1 cm^2 area) are seeded on filter inserts (Costar transwell polycarbonate filters, 0.4 µm pore size) and cultured (for 10 - 12 days DMEM) until tight monolayers are formed. Compounds of interest are dissolved in appropriate solvent (DMSO, 10 mM stock solution). Stock solutions are diluted with HTP-4 buffer (128.13 mM NaCl, 5.36 mM KCl, 1 mM MgSO4, 1.8 mM CaCl2, 4.17 mM NaHCO3, 1.19 mM Na2HPO4 x 7H2O, 0.41 mM NaH2PO4xH2O, 15 mM HEPES, 20 mM glucose, 0.25 % BSA, pH 7.4) to prepare the transport solutions (10 µM compound, final DMSO <= 0.5 %). The transport solution (TL) is applied to the apical or basolateral donor side for measuring A-B or B-A permeability (3 filter replicates), respectively. The receiver side contains the same buffer as the donor side. After 30 min of accommodation, samples are collected at the start t0 = 0 min and at the end of the experiment tn = 90 min from the donor and at 0, 30, 60, and 90 min also from the receiver chamber. Volume removed is replenished by HTP-4 buffer. The compound concentration in the samples is measured by HPLC-MS/MS or scintillation counting. The permeability coefficient (Papp) and efflux ratio are calculated according to: Papp [cm/s] = (concentration receiver [nM] * volume receiver [mL]/time interval [sec])*(1/filter area)*(1/donor concentration [nM]).

ENaC = target: T1, ENaC (Mus musculus, UniProt Q61180+Q9WU38+Q9WU39); experiment: Ussing Chamber assay (short circuit current, amiloride sensitive I_SC); type: cell-based; conditions: Mouse kidney M-1 cells, apical administration, 37°C
T1 construct: Mouse kidney M-1 cells were cultivated in DMEM containing 5% FCS and 5µM dexamethasone; endogenous in cells; host or cells: Mouse kidney M-1 cells (cortical collecting duct line), dexamethasone-treated, on transwell filters
T1 sequence (Q61180 1-699): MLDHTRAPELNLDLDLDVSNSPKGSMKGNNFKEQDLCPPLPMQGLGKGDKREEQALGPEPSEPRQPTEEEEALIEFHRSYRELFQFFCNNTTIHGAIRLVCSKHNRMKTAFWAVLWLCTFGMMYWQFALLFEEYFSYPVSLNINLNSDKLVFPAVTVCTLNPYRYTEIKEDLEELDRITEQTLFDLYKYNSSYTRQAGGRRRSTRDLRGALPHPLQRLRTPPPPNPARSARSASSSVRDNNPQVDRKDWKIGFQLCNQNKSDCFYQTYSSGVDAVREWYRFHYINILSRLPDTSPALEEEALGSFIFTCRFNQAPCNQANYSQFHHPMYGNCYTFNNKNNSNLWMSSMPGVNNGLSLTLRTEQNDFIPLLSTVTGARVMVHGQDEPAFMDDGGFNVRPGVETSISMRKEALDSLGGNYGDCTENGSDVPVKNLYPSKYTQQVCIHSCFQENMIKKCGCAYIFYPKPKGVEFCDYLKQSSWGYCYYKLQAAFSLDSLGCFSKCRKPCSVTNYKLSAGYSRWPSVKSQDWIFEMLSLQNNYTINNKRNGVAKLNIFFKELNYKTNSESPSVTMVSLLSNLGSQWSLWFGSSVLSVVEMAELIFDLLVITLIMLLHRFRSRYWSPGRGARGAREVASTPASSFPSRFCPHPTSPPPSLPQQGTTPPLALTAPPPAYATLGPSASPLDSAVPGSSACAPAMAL
T1 sequence (Q9WU38 1-638): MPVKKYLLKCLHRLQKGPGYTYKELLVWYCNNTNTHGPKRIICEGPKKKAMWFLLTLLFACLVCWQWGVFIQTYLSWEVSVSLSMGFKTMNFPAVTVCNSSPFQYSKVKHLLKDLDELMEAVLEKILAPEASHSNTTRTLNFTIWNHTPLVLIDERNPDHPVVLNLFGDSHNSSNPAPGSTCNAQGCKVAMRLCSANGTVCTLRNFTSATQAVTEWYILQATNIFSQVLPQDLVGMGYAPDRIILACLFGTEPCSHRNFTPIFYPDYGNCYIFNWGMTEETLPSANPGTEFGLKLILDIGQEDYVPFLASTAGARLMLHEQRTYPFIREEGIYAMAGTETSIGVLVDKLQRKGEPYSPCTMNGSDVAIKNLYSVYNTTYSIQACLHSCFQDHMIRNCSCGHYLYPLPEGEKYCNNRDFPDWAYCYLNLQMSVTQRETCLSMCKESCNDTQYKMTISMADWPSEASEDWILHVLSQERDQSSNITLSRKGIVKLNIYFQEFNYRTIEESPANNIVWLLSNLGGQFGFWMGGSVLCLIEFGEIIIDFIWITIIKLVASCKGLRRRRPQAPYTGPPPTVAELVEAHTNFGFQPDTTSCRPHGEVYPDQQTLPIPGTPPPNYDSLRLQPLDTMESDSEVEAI
T1 sequence (Q9WU39 1-655): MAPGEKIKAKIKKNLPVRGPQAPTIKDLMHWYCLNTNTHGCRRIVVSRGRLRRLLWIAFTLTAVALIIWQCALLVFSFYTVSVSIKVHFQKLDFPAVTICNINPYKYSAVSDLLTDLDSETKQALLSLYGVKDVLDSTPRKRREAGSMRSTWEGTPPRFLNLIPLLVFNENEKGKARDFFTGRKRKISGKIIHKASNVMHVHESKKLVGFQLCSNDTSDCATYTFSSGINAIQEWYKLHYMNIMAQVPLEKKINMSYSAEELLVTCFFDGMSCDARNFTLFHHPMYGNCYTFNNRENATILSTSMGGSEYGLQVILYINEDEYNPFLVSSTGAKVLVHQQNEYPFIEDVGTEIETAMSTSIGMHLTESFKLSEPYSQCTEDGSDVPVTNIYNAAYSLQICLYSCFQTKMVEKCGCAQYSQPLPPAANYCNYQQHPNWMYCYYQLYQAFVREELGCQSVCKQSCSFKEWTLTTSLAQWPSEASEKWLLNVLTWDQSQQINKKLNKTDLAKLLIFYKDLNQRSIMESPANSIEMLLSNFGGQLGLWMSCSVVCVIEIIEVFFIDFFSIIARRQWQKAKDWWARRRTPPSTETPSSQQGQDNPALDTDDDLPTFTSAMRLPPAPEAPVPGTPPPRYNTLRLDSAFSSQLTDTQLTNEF
Experimental: The IC50 values of the example compounds given above were determined in the Ussing Chamber assay.
Ussing Chamber: Mouse kidney M-1 cells were cultivated in DMEM containing 5% FCS and 5µM dexamethasone for 10 to 12 days on polyester transwell filters. Filters were inserted into a teflon-coated well-plate which fit into the ussing chamber system. Prior to measurement the medium of M-1 cells was replaced with Caco-2 transport buffer (Invitrogen, Germany). During measurements, the Ussing chamber temperature was kept at 37°C. Short circuit currents (I_sc) were measured in the voltage-clamp mode with the software package Lab View for data acquisition and analysis. The transepithelial electrical resistance (TEER) was determined by the application of voltage steps of ±5mV every 5 sec. Compounds were administered at a final concentration of 3µM or at increasing concentrations (1-3-10µM) to the apical solution. At the end of each experiment the amiloride sensitive I_SC was measured by adding 3µM amiloride to the apical compartment. Results are expressed as inhibition in percent of the amiloride effect or as IC50.

Structure (SMILES) | Papp A→B (in vitro) | Papp B→A (in vitro) | IC50 (ENaC)
CC[n+]1c(CNC(=O)c2nc(Cl)cnc2N)n(CC2CCCO2)c2cc(OCC(=O)N3CC[S+]([O-])CC3)ccc21 (stereo not drawn) [Example 1.01] | 0.8 ×10⁻⁶ cm/s | 0.3 ×10⁻⁶ cm/s | –
CCOCCN1CCC(NC(=O)COc2ccc3c(c2)n(CC)c(CNC(=O)c2nc(Cl)cnc2N)[n+]3CC)CC1 [Example 2.07] | – | – | 3 nM
CCn1c(CNC(=O)c2nc(Cl)cnc2N)[n+](CC)c2ccc(OCC(=O)NCCCN)cc21 [Example 2.01] | 0.2 ×10⁻⁶ cm/s | 0.5 ×10⁻⁶ cm/s | 1 nM
